Like-named read-outs stand apart in the source and are kept apart here.
Experiments:
RAW264.7 macrophages = test: Cell viability (WST-1 reagent); type: cell-based, mouse; settings: RAW264.7, 20 ng/ml IFNγ
Protocol: (§1) FIGS. 1-16 and 20-24. Inhibition of NO Production. RAW264.7 macrophages were pre-treated with DMSO or drugs at various concentrations (μM) for 2 hours, then treated with IFNγ for 24 hours. NO concentration in media was determined using a Griess reagent system; cell viability was determined using the WST-1 reagent.
(§2) RAW264.7 macrophages were pre-treated with DMSO or drugs for 2 hours, then treated with recombinant mouse IFNγ (Sigma) for 24 hours. NO concentration in media was determined using the Griess reagent system (Promega). Cell viability was determined using WST-1 reagent (Roche).

[1] = system: IFNγ-induced NO production in RAW264.7 macrophages; test: Suppression of IFNγ-induced NO production (Griess reagent); type: cell-based, mouse
Protocol: as §1
Compounds of the present disclosure have been tested for inhibition of NO production. Experimental details are provided in Example 1.
as §2

[2] = Mus musculus, RAW264.7, 20 ng/ml IFNγ, read-out: NO IC50
[3] = Mus musculus, RAW264.7, read-out: NO IC50
[4] = Mus musculus, RAW264.7, parent compounds, read-out: IC50 in the NO assay
[5] = Mus musculus, RAW264.7, read-out: IC50 in the NO assay

SMILES | IC50 (RAW264.7 macrophages; Mus musculus) | IC50 [1, 2] | IC50 [1, 3] | also measured
COc1cc(C=CC2(C(C)(C)C(=O)/C=C/[C@@]3(C)C=C(C#N)C(=O)C(C)(C)C3)OCCO2)ccc1O [Compound C0010, (S)-3-((E)-4-(2-(4-hydroxy-3-methoxystyryl)-1,3-dioxolan-2-yl)-4-methyl-3-oxopent-1-enyl)-3,5,5-trimethyl-6-oxocyclohex-1-enecarbonitrile] | 5 µM | 0.7 µM |  | 
Oc1ccc(C=Cc2cc(O)cc(O)c2)cc1 [Resveratrol, resveratrol, reference compound] | > 10 µM | > 10 µM |  | 
CC1(C)C[C@@](C)(/C=C/c2ccc(O)cc2)C=C(C#N)C1=O [Compound R00142, (S,E)-3-(4-hydroxystyryl)-3,5,5-trimethyl-6-oxocyclohex-1-enecarbonitrile] | > 10 µM | 1.2 µM |  | 
CCCC1(CCC)C(=O)C(C#N)=C[C@@]2(C)C1=CC[C@@H]1[C@@H]2CC[C@]2(C)C(=O)CC[C@@H]12 [Compound 63313] | ~2.5 µM |  | ~0.45 µM | 
COCO[C@H]1C[C@H]2[C@@H]([C@H](OCOC)C[C@@H]3CC(=O)C(C#N)=C[C@@]32C)[C@@H]2CC[C@H]([C@H](C)CCC(=O)OC)[C@@]12C [Compound 63312] | > 0.2 µM |  | ~3.5 µM | 
COCOC1CCC2C3CCC4=C(C#N)C(=O)CC[C@@]4(C)C3CC[C@@]12C (stereo partly drawn) [Compound D0014, (10S,13R)-17-(methoxymethoxy)-10,13-dimethyl-3-oxo-2,3,6,7,8,9,10,11,12,13,14,15,16,17-tetradecahydro-1H-cyclopenta[a]phenanthrene-4-carbonitrile] | > 10 µM |  | 2.4 µM | 
CC1(C)C(=O)C(C#N)=C[C@]2(C)C3CC[C@]4(C)C(O[Si](C)(C)C)CCC4C3CCC12 (stereo partly drawn) [Compound D0016, (10S,13S)-4,4,10,13-tetramethyl-3-oxo-17-(trimethylsilyloxy)-4,5,6,7,8,9,10,11,12,13,14,15,16,17-tetradecahydro-3H-cyclopenta[a]phenanthrene-2-carbonitrile] | 10 µM | 0.15 µM |  | 
COc1cc(C=CC2(C(C)(C)C(=O)/C=C/[C@@]3(C)C=C(C#N)C(=O)C(C)(C)C3)OCCO2)ccc1O[Si](C)(C)C(C)(C)C [Compound C0008, (S)-3-((E)-4-(2-(4-(tert-butyldimethylsilyloxy)-3-methoxystyryl)-1,3-dioxolan-2-yl)-4-methyl-3-oxopent-1-enyl)-3,5,5-trimethyl-6-oxocyclohex-1-enecarbonitrile] | 5 µM |  | 0.34 µM | 
COc1cc(/C=C/C(=O)CC(=O)/C=C/c2ccc(O)c(OC)c2)ccc1O [Curcumin, curcumin, reference compound] | 4 µM | 1.35 µM |  | IC50 [1, 4]: 1.5 µM
C[C@]12C=C(C#N)C(=O)C3(CCCC3)C1=CC[C@@H]1[C@@H]2CC[C@@]2(C)[C@H]1CCC21OCCO1 [Compound 63317] |  |  | ~0.07 µM | 
C[C@]12CC[C@H]3[C@@H](CC=C4C5(CCCC5)C(=O)C(C#N)=C[C@@]43C)[C@@H]1CC[C@@H]2O [Compound 63329] |  |  | ~0.06 µM | 
C[C@]12C=C(C#N)C(=O)C3(CCCC3)C1=CC[C@@H]1[C@@H]2CC[C@]2(C)C(=O)CC[C@@H]12 [Compound 63318] |  |  | ~0.05 µM | 
C[C@]12CC[C@H](O)CC1=CC[C@@H]1[C@@H]2CC[C@]2(C)C(=O)CC[C@@H]12 [DHEA, dehydroandrosterone, reference compound] | > 10 µM | > 10 µM |  | IC50 [1, 4]: > 10 µM
C=CCC1(CC=C)C(=O)C(C#N)(C#N)C[C@@]2(C)C1=CC[C@@H]1[C@@H]2CC[C@]2(C)C(=O)CC[C@@H]12 [Compound 63290] | ~10 µM |  | ~3 µM | 
COC(=O)CC[C@@H](C)[C@H]1CC[C@H]2[C@@H]3[C@H](O)C[C@@H]4CC(=O)C(C#N)=C[C@]4(C)[C@H]3C[C@H](O)[C@]12C [Compound 63314] | > 0.2 µM |  | ~8 µM | 
CC1(C)C(=O)C(C#N)=C[C@]2(C)C3CC[C@@]4(C)C(CC[C@@H]4O)C3CCC12 (stereo partly drawn) [Compound D0017, (10S,13S,17S)-17-hydroxy-4,4,10,13-tetramethyl-3-oxo-4,5,6,7,8,9,10,11,12,13,14,15,16,17-tetradecahydro-3H-cyclopenta[a]phenanthrene-2-carbonitrile] | 10 µM | 0.14 µM |  | 
C[C@]12C=C(C#N)C(=O)C3(CC=CC3)C1=CC[C@@H]1[C@@H]2CC[C@]2(C)C(=O)CC[C@@H]12 [Compound 63311] | ~0.75 µM |  | ~0.02 µM | 
C=CCC1(CC=C)C(=O)C(C#N)(C#N)C[C@@]2(C)C1=CC[C@@H]1[C@@H]2CC[C@@]2(C)[C@H]1CCC21OCCO1 [Compound 63291] | > 10 µM |  | ~1.5 µM | 
C[C@@H]1CC[C@@]2(OC1)O[C@H]1C[C@H]3[C@@H]4CC[C@H]5C[C@@H](O)CC[C@]5(C)[C@H]4CC(=O)[C@]3(C)[C@H]1[C@@H]2C [Hecogenin, hecogenin, reference compound] |  |  |  | IC50 (RAW264.7 macrophages): > 10 µM; IC50 ([1]; RAW264.7, 20 ng/ml IFNγ, read-out: NO IC50): > 10 µM
C[C@@]12CCC3C(CCC4=C(C#N)C(=O)CC[C@]43C)C1CCC2O (stereo partly drawn) [Compound D0015, (10S,13R)-17-hydroxy-10,13-dimethyl-3-oxo-2,3,6,7,8,9,10,11,12,13,14,15,16,17-tetradecahydro-1H-cyclopenta[a]phenanthrene-4-carbonitrile] | > 10 µM | 2.9 µM |  | 
CC1CC[C@@]2(OC1)OC1CC3C4CCC5CC(=O)C(C#N)=C[C@]5(C)C4=CC(=O)[C@]3(C)C1[C@@H]2C (stereo partly drawn) [Compound H0001] | 2.5 µM |  | 0.15 µM | 
C[C@]1(/C=C/c2ccc(O)cc2)C=C(C#N)C(=O)CC1 [Compound R00141, (S,E)-3-(4-hydroxystyryl)-3-methyl-6-oxocyclohex-1-enecarbonitrile] | > 10 µM | 3 µM |  | 
C[C@]12C=C(C#N)C(=O)C3(CC=CC3)C1=CC[C@@H]1[C@@H]2CC[C@@]2(C)[C@H]1CCC21OCCO1 [Compound 63304] | ~0.4 µM |  | ~0.03 µM | 
CC1(C)C(=O)C(C#N)=C[C@]2(C)C3CC[C@]4(C)C(=O)CCC4C3CCC12 (stereo partly drawn) [Compound D0018, (10S,13S)-4,4,10,13-tetramethyl-3,17-dioxo-4,5,6,7,8,9,10,11,12,13,14,15,16,17-tetradecahydro-3H-cyclopenta[a]phenanthrene-2-carbonitrile] | > 10 µM | 0.13 µM |  | IC50 [1, 5]: 0.13 µM
COc1cc(/C=C/C(=O)C(C)(C)C(=O)/C=C/[C@@]2(C)C=C(C#N)C(=O)C(C)(C)C2)ccc1O [Compound C0009, (S)-3-((1E,6E)-7-(4-hydroxy-3-methoxyphenyl)-4,4-dimethyl-3,5-dioxohepta-1,6-dienyl)-3,5,5-trimethyl-6-oxocyclohex-1-enecarbonitrile] | 1 µM | 0.1 µM |  | IC50 [1, 5]: 0.1 µM
